From patent US12534432B2, “Trisulfide compound” (Kyowa Pharma Chemical Co., Ltd., priority 2020, dated 2026)

Assay: hydrogen sulfide-trapping ability by methylene blue spectrophotometry
Details: room temperature
Experimental: The presence or absence of a hydrogen sulfide-trapping ability (hydrogen sulfide elimination effect) of pantethine trisulfide (PANSSS) was evaluated through methylene blue spectrophotometry.
Sodium sulfide nonahydrate (Na2S·9H2O) was dissolved in purified water to prepare a 50 μmol/L sodium sulfide nonahydrate solution, which was used as a H2S standard solution.
p-Aminodimethylaniline was dissolved in 10 N sulfuric acid to prepare 1 mmol/L DPDA solution.
Iron (III) chloride hexahydrate was dissolved in 1% sulfuric acid to prepare a 3 mmol/L FeCl3·6H2O solution.
A 0.5 mmol/L pantethine trisulfide solution was prepared by dissolving pantethine trisulfide in 25 mmol/L phosphate buffer (PBS, pH 7).
10 mL of the H2S standard solution (0.5 μmol, standard) was added to a stoppered test tube and stirred. 1 mL (0.5 μmol, 1 eq.) of PBS (blank) or the pantethine trisulfide solution was added to this solution and stirred for a predetermined time (0, 5, 15 or 30 minutes). After stirring, 1 mL (1 μmol, 2 eq.) of the DPDA solution and 1 mL (3 μmol, 6 eq.) of the FeCl3·6H2O solution were added thereto and further stirred, and the absorbance (wavelength: 668 nm) of the solution was measured after the absorbance of the solution stopped changing (that is, after color development due to methylene blue production was completed). This test was conducted under the conditions of room temperature.

CC(C)(CO)[C@@H](O)C(=O)NCCC(=O)NCCSSSCCNC(=O)CCNC(=O)[C@H](O)C(C)(C)CO [pantethine trisulfide]
absorbance (wavelength: 668 nm) compared to the blank (0.5 μmol H2S, 1 eq. pantethine trisulfide in PBS pH 7, stirring 0, 5, 15 or 30 minutes): the longer the contact time (reaction time) between H2S and pantethine trisulfide, the lower the absorbance compared to the blank
hydrogen sulfide-trapping ability (hydrogen sulfide elimination effect) (methylene blue spectrophotometry, 1 eq. to H2S): had a hydrogen sulfide-trapping ability
